# Test system: SKBR3 Cells
# Experiment: SKBR3 Cell Viability Assay
# Type: cell-based
# Conditions: 72 hours, CellTiter Glo luminescence, read-out: MCL-1 CV SKBR3 EC50
# Method: SKBR3 Cell Viability Assay Materials
# SKBR3 Cells (ATCC HTB-30) were obtained from ATCC (Manassas, Va.) and cultured in McCoy 5A's medium (ATCC 30-2007)+10% fetal bovine serum (SH30071.03, HyClone, Pittsburgh, Pa.) plus 1× Penicillin-Streptomycin L-glutamine (Corning 30-009-C1, Corning, N.Y.)).
# The cell viability assay was conducted in a 384-well tissue culture plate (Grenier 781086, Monroe, N.C.) in a total volume of 70 μL. Test compounds were prepared in 1,000×, serially diluted, and pre-spotted into 384-well tissue culture plate by Echo 555 Liquid Handler (Labcyte Inc., San Jose, Calif.). Seventy pi of 6,000 SKBR3 cells were dispensed into each well of the plate and incubated at 37° C. with 5% CO2 for 72 hours. At the end of incubation, 2× CellTiter Glo (CTG) reagents (1 part buffer with 2 parts substrate) (Promega, Madison, Wis.) were prepared, and the plate and the reagent were equilibrated to room temperature for 30 minutes. CTG reagent was added to each plate by Biomek FX at 20 μL/well with 5 times pipetting and mixing to induce cell lysis. Luminescence was read by Envision multimode reader (PerkinElmer). […] Percent inhibition was calculated as followed: % Inhibition=100%*(Well−Neg)/(Pos−Neg) Neg, negative control, DMSO Pos, positive control, 10 μM Puromycin
row,SMILES,EC50 [nM]
1,"CO[C@H]1/C=C/C[C@H](C)C[S@@](=O)(NC(=O)[C@H]2Cc3ccccc3CO2)=NC(=O)c2ccc3c(c2)N(C[C@@H]2CC[C@H]21)C[C@@]1(CCCc2cc(Cl)ccc21)CO3 (single isomer, unassigned) [Example 143]",219
2,CO[C@H]1/C=C/CCC[S@@](=O)(NC(=O)NC2(C(F)(F)F)CC2)=NC(=O)c2ccc3c(c2)N(C[C@@H]2CC[C@H]21)C[C@@]1(CCCc2cc(Cl)ccc21)CO3 [Example 32],1480
3,CO[C@H]1/C=C/CCC[S@@](=O)(NC(=O)CCC(F)(F)F)=NC(=O)c2ccc3c(c2)N(C[C@@H]2CC[C@H]21)C[C@@]1(CCCc2cc(Cl)ccc21)CO3 [Example 94],902
4,CO[C@H]1/C=C/CCC[S@@](=O)(NC(=O)CCCC(F)(F)F)=NC(=O)c2ccc3c(c2)N(C[C@@H]2CC[C@H]21)C[C@@]1(CCCc2cc(Cl)ccc21)CO3 [Example 95],1100
5,CO[C@H]1/C=C/CCC[S@@](=O)(NC(=O)COc2ccccc2)=NC(=O)c2ccc3c(c2)N(C[C@@H]2CC[C@H]21)C[C@@]1(CCCc2cc(Cl)ccc21)CO3 [Example 96],604
6,CO[C@H]1/C=C/CCC[S@@](=O)(NC(=O)CCc2ccccc2)=NC(=O)c2ccc3c(c2)N(C[C@@H]2CC[C@H]21)C[C@@]1(CCCc2cc(Cl)ccc21)CO3 [Example 97],788
7,CO[C@H]1/C=C/CCC[S@@](=O)(NC(=O)c2cc3ccccc3n2C)=NC(=O)c2ccc3c(c2)N(C[C@@H]2CC[C@H]21)C[C@@]1(CCCc2cc(Cl)ccc21)CO3 [Example 98],2190
8,CO[C@H]1/C=C/CCC[S@@](=O)(NC(=O)CCc2csc(C)n2)=NC(=O)c2ccc3c(c2)N(C[C@@H]2CC[C@H]21)C[C@@]1(CCCc2cc(Cl)ccc21)CO3 [Example 99],2090
9,CO[C@H]1/C=C/CCC[S@@](=O)(NC(=O)COc2ccnn2C)=NC(=O)c2ccc3c(c2)N(C[C@@H]2CC[C@H]21)C[C@@]1(CCCc2cc(Cl)ccc21)CO3 [Example 100],2260
10,CO[C@H]1/C=C/CCC[S@@](=O)(NC(=O)CCc2ncsc2C)=NC(=O)c2ccc3c(c2)N(C[C@@H]2CC[C@H]21)C[C@@]1(CCCc2cc(Cl)ccc21)CO3 [Example 101],2590
11,CO[C@H]1/C=C/CCC[S@@](=O)(NC(=O)CCc2nnc(C)s2)=NC(=O)c2ccc3c(c2)N(C[C@@H]2CC[C@H]21)C[C@@]1(CCCc2cc(Cl)ccc21)CO3 [Example 102],891
12,CO[C@H]1/C=C/CCC[S@@](=O)(NC(=O)CCc2c(C)cnn2C)=NC(=O)c2ccc3c(c2)N(C[C@@H]2CC[C@H]21)C[C@@]1(CCCc2cc(Cl)ccc21)CO3 [Example 103],10000
13,CO[C@H]1/C=C/CCC[S@@](=O)(NC(=O)COC2CCOCC2)=NC(=O)c2ccc3c(c2)N(C[C@@H]2CC[C@H]21)C[C@@]1(CCCc2cc(Cl)ccc21)CO3 [Example 105],351
14,CCN(CC)C(=O)OC1CN(C(=O)N[S@@]2(=O)=NC(=O)c3ccc4c(c3)N(C[C@@H]3CC[C@H]3[C@@H](OC)/C=C/C[C@H](C)C2)C[C@@]2(CCCc3cc(Cl)ccc32)CO4)C1 [Example 226],71.3
15,CO[C@H]1/C=C/C[C@H](C)C[S@@](=O)(NC(=O)N2CC3(CCO3)C2)=NC(=O)c2ccc3c(c2)N(C[C@@H]2CC[C@H]21)C[C@@]1(CCCc2cc(Cl)ccc21)CO3 [Example 230],47.1
16,CO[C@H]1/C=C/C[C@H](C)C[S@@](=O)(NC(=O)N2CC3(CCCO3)C2)=NC(=O)c2ccc3c(c2)N(C[C@@H]2CC[C@H]21)C[C@@]1(CCCc2cc(Cl)ccc21)CO3 [Example 231],40
17,CO[C@H]1/C=C/C[C@H](C)C[S@@](=O)(NC(=O)N2CC(C#N)C2)=NC(=O)c2ccc3c(c2)N(C[C@@H]2CC[C@H]21)C[C@@]1(CCCc2cc(Cl)ccc21)CO3 [Example 233],47.2
18,CCOC1CN(C(=O)N[S@@]2(=O)=NC(=O)c3ccc4c(c3)N(C[C@@H]3CC[C@H]3[C@@H](OC)/C=C/C[C@H](C)C2)C[C@@]2(CCCc3cc(Cl)ccc32)CO4)C1 [Example 235],39.8
19,CO[C@H]1/C=C/C[C@H](C)C[S@@](=O)(NC(=O)N2CC(C(C)(C)O)C2)=NC(=O)c2ccc3c(c2)N(C[C@@H]2CC[C@H]21)C[C@@]1(CCCc2cc(Cl)ccc21)CO3 [Example 237],121
20,CCC1CN(C(=O)N[S@@]2(=O)=NC(=O)c3ccc4c(c3)N(C[C@@H]3CC[C@H]3[C@@H](OC)/C=C/C[C@H](C)C2)C[C@@]2(CCCc3cc(Cl)ccc32)CO4)C1 [Example 242],84
21,COc1nn(C2CC2)cc1C(=O)N[S@@]1(=O)=NC(=O)c2ccc3c(c2)N(C[C@@H]2CC[C@H]2[C@@H](OC)/C=C/C[C@H](C)C1)C[C@@]1(CCCc2cc(Cl)ccc21)CO3 [Example 262],85.8
22,COC1CCN(C(=O)N[S@@]2(=O)=NC(=O)c3ccc4c(c3)N(C[C@@H]3CC[C@H]3[C@@H](OC)/C=C/C[C@H](C)C2)C[C@@]2(CCCc3cc(Cl)ccc32)CO4)CC1 [Example 320],36.6
23,COc1nn(C)cc1C(=O)N[S@@]1(=O)=NC(=O)c2ccc3c(c2)N(C[C@@H]2CC[C@H]2[C@@H](OC(=O)CC(C)C)/C=C/C[C@H](C)C1)C[C@@]1(CCCc2cc(Cl)ccc21)CO3 [Example 381],534
24,COc1nn(C)cc1C(=O)N[S@@]1(=O)=NC(=O)c2ccc3c(c2)N(C[C@@H]2CC[C@H]2[C@@H](OC(=O)OC(C)C)/C=C/C[C@H](C)C1)C[C@@]1(CCCc2cc(Cl)ccc21)CO3 [Example 384],154
25,CO[C@H]1/C=C/C[C@H](C)C[S@@](=O)(NC(=O)C2CC(OC(F)F)C2)=NC(=O)c2ccc3c(c2)N(C[C@@H]2CC[C@H]21)C[C@@]1(CCCc2cc(Cl)ccc21)CO3 (stereo partly shown) [Example 431],233

# Same assay, conditions: Homo sapiens, SK-BR-3, 72 h, CellTiter Glo luminescence, read-out: MCL-1 CV SKBR3 EC50
row,SMILES,EC50 [nM]
1,CO[C@H]1/C=C/CCC[S@@](=O)(NC(=O)CCc2ccnn2C)=NC(=O)c2ccc3c(c2)N(C[C@@H]2CC[C@H]21)C[C@@]1(CCCc2cc(Cl)ccc21)CO3 [Example 22],259
2,CO[C@H]1/C=C/CCC[S@@](=O)(NC(=O)CCc2cocn2)=NC(=O)c2ccc3c(c2)N(C[C@@H]2CC[C@H]21)C[C@@]1(CCCc2cc(Cl)ccc21)CO3 [Example 57],596
3,CO[C@H]1/C=C/C[C@H](C)C[S@@](=O)(NC(=O)NC2CC2)=NC(=O)c2ccc3c(c2)N(C[C@@H]2CC[C@H]21)C[C@@]1(CCCc2cc(Cl)ccc21)CO3 [Example 170],210
4,CCc1nn(C)cc1C(=O)N[S@@]1(=O)=NC(=O)c2ccc3c(c2)N(C[C@@H]2CC[C@H]2[C@@H](OC)/C=C/C[C@H](C)[C@H]1C)C[C@@]1(CCCc2cc(Cl)ccc21)CO3 [Example 188],78.3
5,COc1nn(C)cc1C(=O)N[S@@]1(=O)=NC(=O)c2ccc3c(c2)N(C[C@@H]2CC[C@H]2[C@@H](OC)/C=C/[C@H](OC(=O)c2cn(C)nc2OC)CC1)C[C@@]1(CCCc2cc(Cl)ccc21)CO3 [Example 391],4560

# Biological target: Recombinant human MCL-1 protein (Homo sapiens (Human), UniProt Q07820)
# Sequence (Q07820 171-327): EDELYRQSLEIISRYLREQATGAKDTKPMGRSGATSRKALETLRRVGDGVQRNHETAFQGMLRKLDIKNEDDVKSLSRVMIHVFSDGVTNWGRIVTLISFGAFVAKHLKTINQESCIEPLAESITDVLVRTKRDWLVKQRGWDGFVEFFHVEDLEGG
# Experiment: MCL-1/Bim Binding AlphaLISA Assay
# Conditions: 6×His-Mcl-1 (171-327) and biotinylated-Bim peptide (51-76)
# Method: MCL-1/Bim Binding AlphaLISA Assay.
# Inhibition of the MCL-1 and Bim interaction was measured in the following AlphaLISA assay.
# Recombinant human MCL-1 protein (C-terminal 6×His Tagged Mcl-1 containing residues 171-327) was generated at Gilead Sciences, Inc. (Foster City, Calif.). A biotinylated peptide derived from human Bim (residues 51-76) was purchased from CPC Scientific (Sunnyvale, Calif.). (CPC 834113). AlphaLISA anti-6His-acceptor beads (AL128R), AlphaScreen Streptavidin donor beads (6760002B), and Proxiplate-384 Plus (6008289) were purchased from PerkinElmer.
# The AlphaLISA assay was performed in a 384-well Proxiplate in a total volume of 40 μL. The reaction mixture contained 0.0625 nM 6×His-Mcl-1 (171-327), 0.0625 nM biotinylated-Bim peptide, 10 μg/mL AlphaLISA anti-6×His-AlphaLISA acceptor beads, 40 μg/mL AlphaScreen streptavidin donor beads, and serially diluted test compounds in the binding buffer (20 mM Hepes, pH 7.5 (Teknova H1035); 150 mM NaCl (Promega V4221); 0.002% Brij 35 (Thermo Scientific 20150); 1 mM Dithiothreitol (DTT) Solution (Affymetrix 70726); 0.01% BSA (BioLabs B9000S)). 1,000× test compounds were pre-spotted onto 384-well Proxiplate (Labcyte Echo) by Echo 555 Liquid Handler (Labcyte Inc., San Jose, Calif.) followed by incubation of 5 μl Mcl-1 (171-327) for 1 hour. Then 5 μL Bim (51-76) was added and incubated for 2 hours. Five μL AlphaLISA anti-6His-AlphaLISA acceptor beads were then added for 1 hour followed by addition of 5 μL AlphaScreen streptavidin donor beads for 1 hour. The reaction plates were then read on an Envision multimode reader (PerkinElmer) using AlphaScreen settings. […] Percent inhibition was calculated as shown below: % Inhibition=100%*(Well−Neg)/(Pos−Neg) Neg: negative control, DMSO Pos: positive control, no Mcl-1 protein, no biotinylated-Bim peptide
row,SMILES,IC50 [nM]
1,CO[C@H]1/C=C/CCC[S@@](=O)(NC(=O)CCc2cocn2)=NC(=O)c2ccc3c(c2)N(C[C@@H]2CC[C@H]21)C[C@@]1(CCCc2cc(Cl)ccc21)CO3 [Example 57],0.2
2,CO[C@H]1/C=C/C[C@H](C)C[S@@](=O)(NC(=O)NC2CC2)=NC(=O)c2ccc3c(c2)N(C[C@@H]2CC[C@H]21)C[C@@]1(CCCc2cc(Cl)ccc21)CO3 [Example 170],0.06
3,CCc1nn(C)cc1C(=O)N[S@@]1(=O)=NC(=O)c2ccc3c(c2)N(C[C@@H]2CC[C@H]2[C@@H](OC)/C=C/C[C@H](C)[C@H]1C)C[C@@]1(CCCc2cc(Cl)ccc21)CO3 [Example 188],0.069
4,COc1nn(C)cc1C(=O)N[S@@]1(=O)=NC(=O)c2ccc3c(c2)N(C[C@@H]2CC[C@H]2[C@@H](OC)/C=C/[C@H](OC(=O)c2cn(C)nc2OC)CC1)C[C@@]1(CCCc2cc(Cl)ccc21)CO3 [Example 391],0.702

# Source: patent US11643400B2, “MCL-1 inhibitors” (Gilead Sciences, Inc., priority 2018, dated 2023)
